System: Arabidopsis seedlings
Test: Dose-response of imazethapyr spray on 7-day-old Arabidopsis seedlings (foliar damage)
Assay type: in vivo, Arabidopsis thaliana
Conditions: repeated dose-response experiments, spray application, scored for foliar damage at 16 days post-treatment
Method: EMS-mutagenized M2 generation Arabidopsis thaliana (cv. Col-0) seeds were obtained from Lehle Seeds, Round Rock, Texas under catalog number M2E02-02. Flats were seeded to provide approximately one million ems-mutagenized seeds. The seeded flats were then watered by sub-irrigation, covered with transparent plastic domes, and maintained at 4° C. and 70% relative humidity for 4 days in the dark. At the end of this period the growth chamber conditions were reset to 21° C., 70% relative humidity under a 16 hour photoperiod, with soil-surface light intensity adjusted to approximately 150 uEinsteins/m^2/s. The flats were maintained under these conditions for seven days prior to imazethapyr, an imidazolinone treatments. The plastic domes were removed 2 days before the treatments to acclimate the plants to ambient humidity.
Based on repeated dose-response experiments using 7-day-old Arabidopsis seedlings grown under the conditions described above, it was determined that the I100 for imazethapyr was approximately 0.035 lbs. active ingredient per acre (a.i./acre). EMS-mutagenized seedlings were screened at a rate equivalent to approximately twice the 1100 value, or 0.07 lbs. a.i./acre. […] Seedlings were then returned to the growth chamber, and scored for foliar damage at 16 days post-treatment.

`CCc1cnc(C2=NC(C)(C(C)C)C(=O)N2)c(C(=O)O)c1` (stereo not shown) [imazethapyr, 2-[4,5-dihydro-4-methyl-4-(1-methylethyl)-5-oxo-1H-imidazol-2-yl]-5-ethyl-3-pyridinecarboxylic acid] was tested, and the I100 was “approximately 0.035 lbs. active ingredient per acre”.

Reference: US20030097692A1, “Plants with imidazolinone-resistant ALS” (priority 2000, published 2003)
